Measured values from ChEMBL document CHEMBL1201862, “PubChem BioAssay data set” (2004).
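Assay format: 96-well plates, 48-hour exposure. Abbreviation: GI50, concentration required for 50% inhibition of growth.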 Activity calls are given as the source filed them. Rule as the data show it: active = GI50 up to about 1.1 µM and inactive = higher.

Tests used:
Assay in all cases: growth of human tumour cells (NCI), 48 h
SNB-75 = tested on: SNB-75
HOP-92 = tested on: HOP-92
SK-OV-3 = tested on: SK-OV-3
SK-MEL-28 = tested on: SK-MEL-28
MOLT-4 = tested on: MOLT-4
LOX IMVI = tested on: LOX IMVI
PC-3 = tested on: PC-3
BT-549 = tested on: BT-549
KM12 = tested on: KM12
SR = tested on: SR
MDA-MB-435 = tested on: MDA-MB-435
SW-620 = tested on: SW-620
MDA-MB-231 = tested on: MDA-MB-231
RXF 393 = tested on: RXF 393
DU-145 = tested on: DU-145
ACHN = tested on: ACHN
K562 = tested on: K562
EKVX = tested on: EKVX
M14 = tested on: M14

Measured: GI50

Cc1cccc(CNc2[nH]cnc3nncc2-3)c1
inactive: SNB-75 53.5 µM | HOP-92 40.5 µM | SK-OV-3 > 100 µM | SK-MEL-28 > 100 µM | MOLT-4 58.2 µM | LOX IMVI > 100 µM | PC-3 > 100 µM | BT-549 > 100 µM | KM12 > 100 µM | SR 43.5 µM | MDA-MB-435 > 100 µM | SW-620 > 100 µM | MDA-MB-231 > 100 µM | RXF 393 > 100 µM | DU-145 > 100 µM | ACHN 75.7 µM | K562 47.1 µM | EKVX 37.2 µM | M14 > 100 µM

Cn1c(=O)c2nc(COCc3nc4c(=O)n(C)c(=O)n(C)c4[nH]3)[nH]c2n(C)c1=O
inactive: SNB-75 > 100 µM | HOP-92 > 100 µM | SK-OV-3 > 100 µM | SK-MEL-28 > 100 µM | MOLT-4 > 100 µM | LOX IMVI > 100 µM | PC-3 > 100 µM | BT-549 > 100 µM | KM12 > 100 µM | SR > 100 µM | MDA-MB-435 > 100 µM | SW-620 > 100 µM | MDA-MB-231 > 100 µM | RXF 393 > 100 µM | DU-145 > 100 µM | ACHN > 100 µM | K562 > 100 µM | EKVX > 100 µM | M14 > 100 µM

COc1ccc2c(c1OC)OC[C@@H](C1=CC(=O)C=C(O)C1=O)C2
inactive: SNB-75 9.62 µM | HOP-92 1.89 µM | SK-OV-3 16.6 µM | SK-MEL-28 16.9 µM | LOX IMVI 3.32 µM | PC-3 13.1 µM | BT-549 12.8 µM | KM12 13 µM | SR 6.31 µM | MDA-MB-435 8.61 µM | SW-620 8.2 µM | MDA-MB-231 4.46 µM | RXF 393 6.4 µM | DU-145 15.7 µM | ACHN 4.8 µM | K562 2.2 µM | EKVX 12.5 µM | M14 12.4 µM
active: MOLT-4 0.838 µM

CC1C2CC(C(S(=O)(=O)N3CCOCC3)/C2=N\O)C1(C)C (stereo unspecified)
inactive: SNB-75 > 100 µM | HOP-92 > 100 µM | SK-OV-3 > 100 µM | SK-MEL-28 > 100 µM | MOLT-4 > 100 µM | LOX IMVI > 100 µM | PC-3 > 100 µM | BT-549 > 100 µM | KM12 > 100 µM | SR > 100 µM | MDA-MB-435 > 100 µM | SW-620 > 100 µM | MDA-MB-231 > 100 µM | RXF 393 > 100 µM | DU-145 > 100 µM | ACHN > 100 µM | K562 > 100 µM | EKVX > 100 µM | M14 > 100 µM

Cc1cc(S(=O)(=O)/N=C(\NN)NCC(=O)NN)c(S)cc1Cl
inactive: SNB-75 > 10 µM | HOP-92 > 10 µM | SK-OV-3 > 10 µM | SK-MEL-28 > 10 µM | MOLT-4 > 10 µM | LOX IMVI > 10 µM | PC-3 > 10 µM | BT-549 > 10 µM | KM12 > 10 µM | SR > 10 µM | MDA-MB-435 > 10 µM | SW-620 > 10 µM | MDA-MB-231 > 10 µM | RXF 393 > 10 µM | DU-145 > 10 µM | ACHN > 10 µM | K562 > 10 µM | EKVX > 10 µM | M14 > 10 µM

COc1ccc(-c2cc(-c3ccc(Nc4ccnc5cc(Cl)ccc45)cc3)nc(N)c2C#N)cc1
inactive: SNB-75 > 100 µM | HOP-92 > 100 µM | SK-OV-3 > 100 µM | SK-MEL-28 > 100 µM | MOLT-4 > 100 µM | LOX IMVI > 100 µM | PC-3 > 100 µM | BT-549 > 100 µM | KM12 > 100 µM | SR > 100 µM | MDA-MB-435 > 100 µM | SW-620 > 100 µM | MDA-MB-231 > 100 µM | RXF 393 > 100 µM | DU-145 > 100 µM | ACHN > 100 µM | K562 > 100 µM | EKVX > 100 µM | M14 > 100 µM

O=C(O)C1(Cc2ccc3c(c2)CCC3)Cc2ccccc2C1
inactive: SNB-75 67.1 µM | HOP-92 29 µM | SK-OV-3 31 µM | SK-MEL-28 60.8 µM | MOLT-4 71.8 µM | LOX IMVI 87.1 µM | PC-3 63.5 µM | BT-549 29.8 µM | KM12 46.3 µM | SR > 100 µM | MDA-MB-435 > 100 µM | SW-620 > 100 µM | MDA-MB-231 > 100 µM | RXF 393 68.2 µM | DU-145 > 100 µM | ACHN 53.7 µM | K562 56.8 µM | EKVX 54.2 µM | M14 > 100 µM

COc1cc(C2SC(=N)Nc3c2c(C)nn3C(=O)c2ccc(Cl)cc2)cc(OC)c1OC (stereo unspecified)
inactive: SNB-75 > 10 µM | HOP-92 > 10 µM | SK-OV-3 > 10 µM | SK-MEL-28 > 10 µM | MOLT-4 > 10 µM | LOX IMVI > 10 µM | PC-3 > 10 µM | BT-549 > 10 µM | KM12 > 10 µM | SR > 10 µM | MDA-MB-435 > 10 µM | SW-620 > 10 µM | MDA-MB-231 > 10 µM | RXF 393 > 10 µM | DU-145 > 10 µM | ACHN > 10 µM | K562 > 10 µM | EKVX > 10 µM | M14 > 10 µM

Cc1cc(=O)oc2cc(OC(=O)Nc3ccc(Cl)c(Cl)c3)ccc12
inactive: SNB-75 25.2 µM | HOP-92 13.6 µM | SK-OV-3 36.4 µM | SK-MEL-28 25.4 µM | MOLT-4 17.1 µM | LOX IMVI 18.9 µM | PC-3 22.5 µM | BT-549 17.8 µM | KM12 27.1 µM | SR 19.7 µM | MDA-MB-435 20.9 µM | SW-620 21.4 µM | MDA-MB-231 26 µM | RXF 393 14.3 µM | DU-145 25.3 µM | ACHN 20.9 µM | K562 10.9 µM | EKVX 30.8 µM | M14 22.6 µM

N#CC1(C#N)NC(c2cccs2)C(C#N)(C#N)NC1c1cccs1 (stereo unspecified)
inactive: SNB-75 27.4 µM | HOP-92 23 µM | SK-OV-3 33.7 µM | SK-MEL-28 29.6 µM | MOLT-4 23.3 µM | LOX IMVI 19.7 µM | PC-3 27.4 µM | BT-549 21.2 µM | KM12 39.9 µM | SR 28.2 µM | MDA-MB-435 46.1 µM | SW-620 31.1 µM | MDA-MB-231 80.9 µM | RXF 393 31.7 µM | DU-145 59.7 µM | ACHN 25.4 µM | K562 22.4 µM | EKVX 55.8 µM | M14 31.3 µM

COc1cc(/C=N/NC(=O)c2c(Cl)c(Cl)c(Cl)c(Cl)c2-c2nc3cc(C(=O)c4ccccc4)ccc3[nH]2)ccc1O
inactive: SNB-75 42.1 µM | HOP-92 76.9 µM | SK-OV-3 56.4 µM | SK-MEL-28 49.2 µM | MOLT-4 16.4 µM | LOX IMVI 50.9 µM | PC-3 35.2 µM | BT-549 32.7 µM | KM12 46.5 µM | SR 11.5 µM | MDA-MB-435 13.8 µM | SW-620 34.5 µM | MDA-MB-231 26.8 µM | RXF 393 21.6 µM | DU-145 73.8 µM | ACHN 60.7 µM | K562 15.8 µM | EKVX 63.8 µM | M14 34.3 µM

COc1ccc2c(c1OC)OCC(CN(C)C)C2=O (stereo unspecified)
inactive: SNB-75 22.3 µM | HOP-92 4.99 µM | SK-OV-3 > 43.1 µM | SK-MEL-28 17.4 µM | MOLT-4 2.23 µM | LOX IMVI 14.3 µM | PC-3 18.7 µM | BT-549 19.4 µM | KM12 16.5 µM | SR 1.87 µM | MDA-MB-435 19.5 µM | SW-620 7.45 µM | MDA-MB-231 18.8 µM | RXF 393 16.6 µM | DU-145 18.8 µM | ACHN 17.7 µM | K562 3.63 µM | EKVX 25.2 µM | M14 17.3 µM

COc1ccc(CCCNC(=O)c2cc(OC)c(OC)cc2CCO)cc1OC
inactive: SNB-75 > 100 µM | HOP-92 > 100 µM | SK-OV-3 > 100 µM | SK-MEL-28 > 100 µM | MOLT-4 > 100 µM | LOX IMVI > 100 µM | PC-3 > 100 µM | BT-549 > 100 µM | KM12 > 100 µM | SR > 100 µM | MDA-MB-435 > 100 µM | SW-620 > 100 µM | MDA-MB-231 > 100 µM | RXF 393 > 100 µM | DU-145 > 100 µM | ACHN > 100 µM | K562 > 100 µM | EKVX > 100 µM | M14 > 100 µM

O=c1c(C(c2cccc(C(c3c(O)oc4ccccc4c3=O)c3c(O)oc4ccccc4c3=O)c2)c2c(O)oc3ccccc3c2=O)c(O)oc2ccccc12
inactive: SNB-75 3.73 µM | HOP-92 27.7 µM | SK-OV-3 18.2 µM | SK-MEL-28 > 100 µM | MOLT-4 29.2 µM | LOX IMVI 18.7 µM | PC-3 37.9 µM | BT-549 27.9 µM | KM12 30.5 µM | SR 28.4 µM | MDA-MB-435 86.9 µM | SW-620 > 100 µM | MDA-MB-231 20.8 µM | RXF 393 > 100 µM | DU-145 39.4 µM | ACHN 36.6 µM | K562 27.9 µM | EKVX 67.3 µM | M14 > 100 µM
